Test results from article PMC9145706 (Molecules, 2022).
Read-outs that look alike come from different tables or passages of the source.

Target: T1, AChE enzyme from electric eel (EeAChE) (type VI) (Electrophorus electricus, UniProt O42275)
T1 construct: purchased Sigma-Aldrich, Steinheim, Germany type VI (catalogue number not given)
Test: In vitro AChE inhibition assay (modified Ellman method)
Format: biochemical
Experimental: AChE enzyme from electric eel (EeAChE) (type VI), acetylthiocholine iodide, Ellman reagent, 5,5-dithiobis-2-nitro benzoic acid (DTNB), and Eserine (standard inhibitor) were purchased from Sigma-Aldrich, Steinheim, Germany. AChE inhibitory activity was performed in vitro using a modified spectrophotometric method developed by Ellman et al.. Experiments were carried out in a 96-well microtiter plate using a Multiskan spectrum spectrophotometer. The test compounds were prepared immediately before the experiment as fresh samples. Each compound was dissolved in 200 μL methanol, 150 μL […] phosphate buffer (pH 8.0), and 20 μL AChE enzyme. An aliquot of 10 μL of resulting test solutions was mixed and incubated at 25 °C for 10 min. The sample with 10 μL of solvent (methanol) rather than the test compound served as a negative control. After 10 min, 10 μL DTNB was added to the wells and the reaction was initiated with the addition of 10 μL acetylthiocholine (ATCh). All of the samples were prepared and analyzed in triplicate. The hydrolysis of ATCh was monitored at wavelength 412 nm by measuring the formation of a yellow anion of 5-thio-2-nitrobenzoate due to the reaction of DTNB with thiocholine. The initial rate was measured as the change in optical density/min (OD/min). As the extinct coefficient of the yellow anion is known, the following equation was used to calculate the rate of the enzymatic reaction: (1) Rate (moles/L/min) = change in absorbance/εTNB where εTNB is the molar extinction coefficient value of 5-thio-2-nitrobenzoate = 13.6 × 10^3 at 412 nm.
The following formula was used to calculate the % enzyme inhibition by test compounds:(2) % inhibition = 1−Rate of change in the absorbance of test/Rate of change in the absorbance of cotrol × 100
Chalcone solutions were serially diluted to different concentrations (0.0977–50 µM) and were analyzed in triplicate using the above-described modified Ellman’s method. Finally, IC50 values were determined and statistically analyzed using EZ-Fit Enzyme Kinetic Program (Perrella Scientific Inc., Amherst, MA, USA).

[1] = EeAChE, Ellman method, triplicate, 25 °C, pH 8.0, read-out: IC50 (AChE inhibitory activity)

T1 sequence (O42275 24-633): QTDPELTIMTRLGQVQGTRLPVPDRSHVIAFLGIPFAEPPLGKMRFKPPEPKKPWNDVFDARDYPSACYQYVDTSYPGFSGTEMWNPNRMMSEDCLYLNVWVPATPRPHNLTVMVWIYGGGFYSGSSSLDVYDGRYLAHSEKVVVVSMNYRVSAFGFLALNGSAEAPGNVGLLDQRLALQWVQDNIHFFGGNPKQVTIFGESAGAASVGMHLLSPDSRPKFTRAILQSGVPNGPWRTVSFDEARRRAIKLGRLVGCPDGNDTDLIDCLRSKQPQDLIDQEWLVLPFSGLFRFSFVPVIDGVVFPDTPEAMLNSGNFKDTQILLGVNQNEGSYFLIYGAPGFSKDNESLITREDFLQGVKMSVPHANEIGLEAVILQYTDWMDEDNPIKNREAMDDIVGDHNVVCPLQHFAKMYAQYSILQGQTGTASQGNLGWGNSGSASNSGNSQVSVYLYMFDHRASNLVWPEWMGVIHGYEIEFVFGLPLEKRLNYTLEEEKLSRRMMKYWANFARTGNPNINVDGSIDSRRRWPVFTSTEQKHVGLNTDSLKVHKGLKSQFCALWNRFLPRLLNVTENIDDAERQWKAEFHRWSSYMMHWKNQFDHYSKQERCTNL

SMILES | IC50 [1] | IC50
CCc1ccc(C(=O)/C=C/c2ccc([N+](=O)[O-])cc2)cc1 [Compound C2, (E)-1-(4-ethylphenyl)-3-(4-nitrophenyl)prop-2-en-1-one] | 31.2 ± 1.8 µM | –
COc1ccc(/C=C/C(=O)c2ccc(Cl)cc2)cc1 [Compound C3, (E)-1-(4-chlorophenyl)-3-(4-methoxyphenyl)prop-2-en-1-one] | – | 32 ± 2.4 µM
O=C(/C=C/c1ccccc1)c1ccc(Cl)cc1 [Compound C1, (E)-1-(4-chlorophenyl)-3-phenylprop-2-en-1-one] | 22 ± 2.8 µM | –
O=C(/C=C/c1ccc([N+](=O)[O-])cc1)c1ccc(Br)cc1 [Compound C5, (E)-1-(4-bromophenyl)-3-(4-nitrophenyl)prop-2-en-1-one] | 37.6 ± 0.75 µM | –
